Measured values as given in US20240294465A1, “NOVEL ANTI-FIBROTIC DRUGS” (HELMHOLTZ ZENTRUM MUNCHEN - DEUTSCHES FORSCHUNGSZENTRUM FUR …, priority 2021, published 2024).

Tested on: TGFβ1-induced fibulin-1 ECM deposition in primary human lung IPF-fibroblasts (phLFs)
Assay: Assessing N23P activity in inhibiting ECM deposition in IPF-fibroblasts (fibulin-1 MFI)
Assay type: cell-based
Details: for inhibition at 10 µM: Homo sapiens, 72 h, TGFβ1 1 ng/ml, MFI
Protocol: phLFs were cultured in DMEM F-12 medium with 20% fetal bovine serum (FBS) and antibiotic supplement as mentioned above. Cells were seeded with 6000 cells/well in 384-well CellCarrier plates (Perkin Elmer, Cat #6007550). Following overnight incubation, cells were starved in serum-reduced medium (1% FBS with 0.1 mM 2-phosphoascorbate (Sigma, Cat #49752)) for 24 h. Afterwards, cells were treated with TGFβ1 (1 ng/ml) or vehicle, and additionally small molecules or appropriate vehicle controls were added. After 72 h of incubation, medium was changed for starving medium with 1 μg/mL AlexaFluor-488 fluorophore conjugated anti-collagen-type-5 antibodies (SantaCruz, Clone C-5, Cat #sc-166155 AF488), 0.66 μg/mL AlexaFluor-555 fluorophore conjugated anti-collagen-type-1 antibodies (Rockland, Cat #600-401-103-0.1), and 1 μg/mL AlexaFluor-637 fluorophore conjugated anti-fibulin 1 antibodies (SantaCruz, Clone C-5, Cat #sc-25281 AF647) and 1 μg/mL Hoechst H33342 (Sigma). Fluorescenceconjugation of the collagen type 1 antibody was done by using the AlexaFluor-555 Protein Labeling Kit (Invitrogen, Cat #A20174) according to manufacturer's instructions. Labeling efficacy was controlled by photometrical means.
Following four hours of incubation, cells were washed three times with PBS and fixed with paraformaldehyde (PFA). For automated liquid handling in 384 well plates, an INTEGRA Assist Plus (INTEGRA, Zizers, Switzerland) equipped with an INTEGRA Viaflo 1I pipette (INTEGRA, Zizers, Switzerland, Cat #4642), 125 μL GripTips™ pipette tips (INTEGRA, Zizers, Switzerland, Cat #6464) and sterile reagent reservoirs (INTEGRA, Cat #4311) were applied. All automated pipetting steps with the INTEGRA Assist Plus were performed at 9.5 μL/s in order to ensure proper integrity and attachment of the deposited ECM to the culturing surface within the wells of the 384-well plates. During cell seeding the automated liquid handling was performed at 89.3 μL/s. Removal of liquids from the well-plates was done by manually inverting the plates.
Following fixation, the automated imaging was achieved by using aconfocal laser scanning microscope (LSM710, Zeiss) with automated focus detection for three-dimensional image acquisition (1024 px×1024 px×9 px which equals a dimension of 1417 μm×1417 μm×16 μm). For post-acquisition analysis images were imported into IMARIS software (Bitplane) and volume detection or alternatively quantification of the mean fluorescence intensity, as well as Hoechst-stained cell nuclei were automatically counted by using Imaris' spot detection algorithm.
Cells were seeded with 6000 cells/well in 384-well CellCarrier plates. After overnight incubation, cells were starved in serum-reduced medium (1% FBS with 0.1 mM 2-phosphoascorbate for 24 h). Then, phLFs were treated with TGFβ1 (1 ng/ml) or vehicle, and incubated together with synthesized N23Ps (10 μM) or appropriate vehicle controls. After 72 h of incubation, medium was changed for starvation medium with 1 μg/mL AlexaFluor-637 fluorophore conjugated anti-fibulin 1 antibodies (SantaCruz, Clone C-5, Cat #sc-25281 AF647) and 1 μg/mL Hoechst H33342 (Sigma). Following four hours of incubation, cells were washed three times with PBS and fixed with paraformaldehyde (PFA). Following fixation, the automated imaging was achieved by using a confocal laser scanning microscope (LSM710, Zeiss) with automated focus detection for three-dimensional image acquisition (1024 px×1024 px×9 px which equals a dimension of 1417 μm×1417 μm×16 μm). For post-acquisition analysis images were imported into IMARIS software (Bitplane) and quantified for the mean fluorescence intensity, as well as Hoechst-stained cell nuclei were automatically counted by using Imaris' spot detection algorithm.
Assessment of ECM inhibition I: Mean fluorescence intensity (MFI) values represented the degree of fibulin-1 ECM deposition in three different IPF-phLFs (n=3). […]

[1] = one or two different IPF-phLFs (n=1-2)
[2] = three different IPF-phLFs (n=3)

| SMILES | inhibition at 10 µM [1] [%] | inhibition at 10 µM [2] [%] | inhibition of TGFβ1-induced ECM deposition (at 10 μM) |
| --- | --- | --- | --- |
| CCCCOc1ccccc1NC(=O)/C=C/c1ccc2c(c1)OC(F)(F)O2 [Example 6] | 20 to 60 | 60 to 90 |  |
| CCCCOc1ccccc1NC(=O)/C=C/c1ccc2[nH]c(C)nc2c1 [Example 161, (E)-N-(2-butoxyphenyl)-3-(2-methyl-1H-benzo[d]imidazol-5-yl)acrylamide] | > 90 |  |  |
| CCCCOc1ccccc1NC(=O)/C=C/c1ccc2occc2c1 [Example 37, (E)-3-(benzofuran-5-yl)-N-(2-butoxyphenyl)acrylamide] |  | > 90 |  |
| CCCCOc1ccccc1NC(=O)/C=C/c1ccc(OCC)cc1 [Example 20, (E)-N-(2-butoxyphenyl)-3-(4-ethoxyphenyl)acrylamide] |  | 60 to 90 |  |
| CCCCOc1ccccc1NC(=O)/C=C/c1ccc2c(c1)CCO2 [Example 34, (E)-N-(2-butoxyphenyl)-3-(2,3-dihydrobenzofuran-5-yl)acrylamide] |  | > 90 |  |
| CCCCOc1ccccc1NC(=O)/C=C/c1ccc2nonc2c1 [Example 166, (E)-3-(benzo[c][1,2,5]oxadiazol-5-yl)-N-(2-butoxyphenyl)acrylamide] | 20 to 60 |  |  |
| COc1ccc(/C=C/C(=O)Nc2ccccc2OCc2ccc(Cl)cc2)cc1 [Example 45, (E)-N-(2-((4-chlorobenzyl)oxy)phenyl)-3-(4-methoxyphenyl)acrylamide] |  | > 90 |  |
| CCCCOc1ccccc1NC(=O)/C=C/c1cccc(OC)c1 [Example 7, (E)-N-(2-butoxyphenyl)-3-(3-methoxyphenyl)acrylamide] |  | 60 to 90 |  |
| COc1ccc(/C=C/C(=O)Nc2ccccc2OCCCC2CC2)cc1 [Example 60, (E)-N-(2-(3-cyclopropylpropoxy)phenyl)-3-(4-methoxyphenyl)acrylamide] | > 90 |  |  |
| COc1ccc(/C=C/C(=O)Nc2ccccc2OCc2ccc(F)cc2)cc1 [Example 5, (E)-N-(2-((4-fluorobenzyl)oxy)phenyl)-3-(4-methoxyphenyl)acrylamide] |  | > 90 |  |
| CCCCOc1cccc(Cl)c1NC(=O)/C=C/c1ccc(OC)c(OC)c1 [Example 36, (E)-N-(2-butoxy-6-chlorophenyl)-3-(3,4-dimethoxyphenyl)acrylamide] |  | 60 to 90 |  |
| CCCCOc1ccccc1NC(=O)/C=C/c1ccc(S(C)(=O)=O)cc1 [Example 153, (E)-N-(2-butoxyphenyl)-3-(4-(methylsulfonyl)phenyl)acrylamide] | > 90 |  |  |
| CCCCOc1ccccc1N(Cc1ccccc1)C(=O)/C=C/c1ccc(OC)cc1 [Example 75, (E)-N-benzyl-N-(2-butoxyphenyl)-3-(4-methoxyphenyl)acrylamide] |  | > 90 |  |
| CCCCOc1c(NC(=O)/C=C/c2ccc3[nH]ccc3c2)ccc(F)c1F [Example 163, (E)-N-(2-butoxy-3,4-difluorophenyl)-3-(1H-indol-5-yl)acrylamide] | 20 to 60 |  |  |
| COc1ccc(/C=C/C(=O)Nc2ccccc2Oc2ccc(Cl)cc2)cc1 [Example 39, (E)-N-(2-(4-chlorophenoxy)phenyl)-3-(4-methoxyphenyl)acrylamide] |  | 60 to 90 |  |
| CCCCOc1c(NC(=O)/C=C/c2ccc3sc(C)nc3c2)ccc(F)c1F [Example 162, (E)-N-(2-butoxy-3,4-difluorophenyl)-3-(2-methylbenzo[d]thiazol-5-yl)acrylamide] | 60 to 90 |  |  |
| COc1ccc(/C=C/C(=O)Nc2ccccc2OCCC2CC2)cc1 [Example 38, (E)-N-(2-(2-cyclopropylethoxy)phenyl)-3-(4-methoxyphenyl)acrylamide] |  | > 90 |  |
| CCCCOc1ccccc1NC(=O)/C(C)=C/c1ccc(OC)cc1 [Example 79, (E)-N-(2-butoxyphenyl)-3-(4-methoxyphenyl)-2-methylacrylamide] |  | 60 to 90 |  |

| SMILES | inhibition at 10 µM [1] [%] | inhibition at 10 µM [2] [%] | inhibition of TGFβ1-induced ECM deposition (at 10 μM) |
| --- | --- | --- | --- |
| CCCCOc1ccccc1NC(=O)/C=C/c1cc(F)c(OC)c(F)c1 [Example 33, (E)-N-(2-butoxyphenyl)-3-(3,5-difluoro-4-methoxyphenyl)acrylamide] |  | 60 to 90 |  |
| CCCCOc1ccccc1NC(=O)/C=C/c1ccc(OC(F)F)cc1 [Example 11, (E)-N-(2-butoxyphenyl)-3-(4-(difluoromethoxy)phenyl)acrylamide] |  | 60 to 90 |  |
| COc1ccc(/C=C/C(=O)Nc2ccccc2C(=O)O)cc1OC [Tranilast, reference compound] |  |  | no inhibition |
| COc1ccc(/C=C/C(=O)Nc2ccccc2OCCCC(F)(F)F)cc1 [Example 29, (E)-3-(4-methoxyphenyl)-N-(2-(4,4,4-trifluorobutoxy)phenyl)acrylamide] |  | 20 to 60 |  |
| COc1ccc(/C=C/C(=O)Nc2ccccc2OCCC(F)(F)F)cc1 [Example 155, (E)-3-(4-methoxyphenyl)-N-(2-(3,3,3-trifluoropropoxy)phenyl)acrylamide] | 60 to 90 |  |  |
| C#CCCCOc1ccc(/C=C/C(=O)Nc2ccccc2OCCCC)cc1 [Example 83, (E)-N-(2-butoxyphenyl)-3-(4-(pent-4-yn-1-yloxy)phenyl)acrylamide] | > 90 | > 90 |  |
| COc1ccc(/C=C/C(=O)Nc2ccccc2Oc2ccccc2F)cc1 [Example 43, (E)-N-(2-(2-fluorophenoxy)phenyl)-3-(4-methoxyphenyl)acrylamide] |  | 60 to 90 |  |
| CCCCOc1ccccc1NC(=O)/C=C/c1ccc2c(c1)CCC(C)(C)O2 [Example 63] | 20 to 60 |  |  |
| CCCCOc1cc(F)ccc1NC(=O)/C=C/c1ccc(OC)cc1 [Example 31, (E)-N-(2-butoxy-4-fluorophenyl)-3-(4-methoxyphenyl)acrylamide] |  | 60 to 90 |  |
| C#CCOc1ccc(/C=C/C(=O)Nc2ccccc2OCCC2(C)N=N2)cc1 [Example 167, (E)-N-(2-(2-(3-methyl-3H-diazirin-3-yl)ethoxy)phenyl)-3-(4-(prop-2-yn-1-yloxy)phenyl)acrylamide] | 60 to 90 |  |  |
| CCCCOc1ccccc1N(C)C(=O)/C=C/c1ccc(OC)c(OC)c1 [Example 67] |  | > 90 |  |
| CCCCOc1ccccc1NC(=O)/C(=C/c1ccc(OC)cc1)C(C)C [Example 82, (E)-N-(2-butoxyphenyl)-2-(4-methoxybenzylidene)-3-methylbutanamide] | 20 to 60 |  |  |
| COc1ccc(/C=C/C(=O)Nc2ccccc2Oc2ccccc2)cc1 [Example 3, (E)-3-(4-methoxyphenyl)-N-(2-phenoxyphenyl)acrylamide] |  | > 90 |  |
| CCCCOc1cc(Cl)ccc1NC(=O)/C=C/c1ccc(OC)cc1 [Example 21, (E)-N-(2-butoxy-4-chlorophenyl)-3-(4-methoxyphenyl)acrylamide] |  | 20 to 60 |  |
| CCCCOc1ccccc1N(C)C(=O)/C=C/c1ccc(OCC)cc1 [Example 71, (E)-N-(2-butoxyphenyl)-3-(4-ethoxyphenyl)-N-methylacrylamide] |  | 20 to 60 |  |
| CCCCOc1ccccc1NC(=O)/C=C/c1ccc(OCC(F)(F)F)cc1 [Example 2, (E)-N-(2-butoxyphenyl)-3-(4-(2,2,2-trifluoroethoxy)phenyl)acrylamide] |  | 60 to 90 |  |
| C#CCCCOc1ccc(/C=C/C(=O)Nc2ccccc2OCCC2(C)N=N2)cc1 [Example 168, (E)-N-(2-(2-(3-methyl-3H-diazirin-3-yl)ethoxy)phenyl)-3-(4-(pent-4-yn-1-yloxy)phenyl)acrylamide] | 60 to 90 |  |  |
| CCCCOc1c(NC(=O)/C=C/c2ccc(OC)cc2)ccc(F)c1F [Example 13] |  | > 90 |  |
